Source: ChEMBL document CHEMBL4376882, “Photodynamic Therapy for ras-Driven Cancers: Targeting G-Quadruplex RNA Structures with Bifunctional Alkyl-Modified Porphyrins” (J Med Chem, 2020)
The source made the active and inactive calls. The rule behind the calls is not given here.

Assays:
[1] = tested on: DNA; test: Binding affinity to DNA (unknown origin) strands containing 95 and 89 nucleotides in ratio of 1:2 assessed as interaction between G4 motif of 95 nucleotides and biotinylated compound at 0.2 to 0.4 uM at pH 7.4 after 1 hr by biotin-streptavidin pull-down assay; type: nucleic-acid assay
[2] = tested on: DNA; test: Binding affinity to DNA (unknown origin) strands containing 95 and 89 nucleotides in ratio of 1:2 assessed as presence of ssDNA when G4 motif of 95 nucleotides interact with biotinylated compound at > 0.4 uM at pH 7.4 after 1 hr by biotin-streptavidin pull-down assay; type: nucleic-acid assay
[3] = tested on: RNA; test: Binding affinity to total RNA in human PANC1 cells assessed as increase in amount of KRAS mRNA in recovered RNA from biotin-streptavidin pulled down at 0.2 to 0.6 uM at pH 7.4 and 4 degree C using biotinylated compound by qRT-PCR analysis relative to control; type: cell-based
[4] = tested on: RNA; test: Binding affinity to total RNA in human PANC1 cells assessed as increase in amount of HPRT mRNA in recovered RNA from biotin-streptavidin pulled down at 0.2 to 0.6 uM at pH 7.4 and 4 degree C using biotinylated compound by qRT-PCR analysis; type: cell-based
[5] = tested on: RNA; test: Binding affinity to total RNA in human PANC1 cells assessed as increase in amount of beta2-microglobulin mRNA in recovered RNA from biotin-streptavidin pulled down at 0.2 to 0.6 uM at pH 7.4 and 4 degree C using biotinylated compound by qRT-PCR analysis; type: cell-based
[6] = tested on: RNA; test: Binding affinity to total RNA in human PANC1 cells assessed as increase in amount of NRAS mRNA in recovered RNA from biotin-streptavidin pulled down at 0.2 to 0.6 uM at pH 7.4 and 4 degree C using biotinylated compound by qRT-PCR analysis relative to control; type: cell-based
[7] = target: Quadruplex DNA; test: Binding affinity to NRAS RNA g-quadruplex (unknown origin) by fluorescence spectroscopy; type: nucleic-acid assay
[8] = target: Quadruplex DNA; test: Binding affinity to human KRAS utr-1 RNA g-quadruplex by fluorescence spectroscopy; type: nucleic-acid assay
[9] = target: Quadruplex DNA; test: Binding affinity to human KRAS utr-c RNA g-quadruplex by fluorescence spectroscopy; type: nucleic-acid assay
[10] = target: Quadruplex DNA; test: Binding affinity to human KRAS utr-z RNA g-quadruplex by fluorescence spectroscopy; type: nucleic-acid assay
[11] = Drug uptake in human PANC1 cells at 5 uM after 16 hrs by FACS analysis; type: ADME, cell-based; settings: panc-1, 16 h
[12] = Drug uptake in human PANC1 cells at 5 uM after 2 hrs by FACS analysis; type: ADME, cell-based; settings: panc-1, 2 h
[13] = Drug uptake in human PANC1 cells in presence of dynamin-inhibitor dynasore; type: ADME, cell-based; settings: panc-1
[14] = tested on: PANC-1; test: Antitumor activity against human PANC1 cells xenografted in SCID mouse assessed as reduction in tumor growth at 30 mg/kg administered intratumorally measured after 14 days by micrometer caliper method; type: functional, organism-based
[15] = tested on: PANC-1; test: Photodynamic antitumor activity against human PANC1 cells xenografted in SCID mouse assessed as reduction in tumor growth at 30 mg/kg administered intratumorally after 2 hrs photoirradiated by diode laser at 193 J/cm2 measured after 14 days by micrometer caliper method; type: functional, organism-based

Compound | Activity [1] | Activity [2] | fold change (FC) [3] | Activity [4] | Activity [5] | Activity [6] | Kd [7] [nM] | Kd [8] [nM] | Kd [9] [nM] | Kd [10] [nM] | Drug uptake [11] | Drug uptake [12] | Drug uptake [13] | Activity [14] | Activity [15]
C[n+]1ccc(-c2c3nc(c(-c4cc[n+](C)cc4)c4ccc([nH]4)c(-c4cc[n+](CCCCCCCCCCCCNC(=O)CCCC[C@@H]5SC[C@@H]6NC(=O)N[C@@H]65)cc4)c4nc(c(-c5cc[n+](C)cc5)c5ccc2[nH]5)C=C4)C=C3)cc1 | Active | Active | 25 | inactive | inactive | Active |  |  |  |  |  |  |  |  | 
C[n+]1ccc(-c2c3nc(c(-c4cc[n+](C)cc4)c4ccc([nH]4)c(-c4cc[n+](C)cc4)c4nc(c(-c5cc[n+](C)cc5)c5ccc2[nH]5)C=C4)C=C3)cc1.[Cl-].[Cl-].[Cl-].[Cl-] [TMPYP4 CHLORIDE] |  |  |  |  |  |  | 301 | 454 | 1020 | 681 | Active | Not Active | Active |  | 
C[n+]1ccccc1-c1c2nc(c(-c3cccc[n+]3C)c3ccc([nH]3)c(-c3cccc[n+]3C)c3ccc([nH]3)c(-c3cccc[n+]3C)c3nc1C=C3)C=C2.[Cl-].[Cl-].[Cl-].[Cl-] |  |  |  |  |  |  |  |  |  |  | Active | Not Active |  | inactive | inactive
